# Measurements taken from patent US20240287076A1, “COMPOUNDS FOR TARGETING DEGRADATION OF BRUTON'S TYROSINE KINASE” (BIOGEN MA INC., priority 2021, published 2024).
# Biological target: T1, BTK (Homo sapiens, UniProt Q06187)
# T1 construct: The GM01501.3 cell line endogenously expresses BTK with a HiBiT fusion tag via CRISPR knock-in at its C-terminal region; endogenous in cells; host or cells: GM01501.3 (GM01501 cells engineered by CRISPR knock-in of HiBiT at the BTK locus)
# Assay: BTK degradation assay using the HiBiT Method (Nano-Glo HiBiT Lytic Assay, GM01501.3 cells)
# Format: cell-based
# Conditions: HiBiT Degradation on GM01501.3 BTK @ 6 hours
# Summary of the method: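 Degradation read-out: HiBiT luminescence after lytic reagent addition, giving DC50. Compounds dosed from 10 μM in 11 half-log steps (duplicate) onto GM01501.3 cells, whose endogenous BTK carries a C-terminal HiBiT knock-in tag; 6 h exposure, 37 °C, 5% CO2.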
# T1 sequence (Q06187 whole entry, the tested form may be a part): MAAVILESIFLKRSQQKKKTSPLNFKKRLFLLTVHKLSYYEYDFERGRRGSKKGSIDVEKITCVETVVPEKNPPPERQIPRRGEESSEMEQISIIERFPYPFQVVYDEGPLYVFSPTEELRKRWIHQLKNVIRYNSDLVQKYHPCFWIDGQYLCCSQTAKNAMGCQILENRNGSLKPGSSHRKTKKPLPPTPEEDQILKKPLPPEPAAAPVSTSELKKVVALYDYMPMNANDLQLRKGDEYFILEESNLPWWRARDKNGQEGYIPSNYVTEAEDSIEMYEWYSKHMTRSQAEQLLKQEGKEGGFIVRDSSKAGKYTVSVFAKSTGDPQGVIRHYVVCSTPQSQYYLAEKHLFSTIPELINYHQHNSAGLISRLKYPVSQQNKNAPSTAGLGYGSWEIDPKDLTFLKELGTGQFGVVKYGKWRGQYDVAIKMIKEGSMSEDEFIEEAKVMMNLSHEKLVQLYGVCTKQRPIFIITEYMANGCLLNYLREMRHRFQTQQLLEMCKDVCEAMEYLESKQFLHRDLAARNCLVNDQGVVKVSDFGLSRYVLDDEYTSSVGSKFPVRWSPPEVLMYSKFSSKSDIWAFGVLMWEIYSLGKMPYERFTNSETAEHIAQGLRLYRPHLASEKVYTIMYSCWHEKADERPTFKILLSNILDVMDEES
row,SMILES,DC50 [nM]
1,"Cc1cc(-c2ncnn3cc(-c4ccc(C(=O)NC5CCc6cc(NC7CCC(=O)NC7=O)ccc6C5)cc4)cc23)ccc1CNC(=O)c1noc(C(C)(C)C)n1 (centres unmarked) [Example 197, 5-(tert-butyl)-N-(4-(6-(4-((6-((2,6-dioxopiperidin-3-yl)amino)-1,2,3,4-tetrahydronaphthalen-2-yl)carbamoyl)phenyl)pyrrolo[2,1-f][1,2,4]triazin-4-yl)-2-methylbenzyl)-1,2,4-oxadiazole-3-carboxamide]",< 100
2,"Cc1cc(-c2ncnn3cc(-c4ccc(C(=O)NCCc5ccc(NC6CCC(=O)NC6=O)cc5)cc4)cc23)ccc1CNC(=O)c1noc(C(C)(C)C)n1 (centres unmarked) [Example 198, 5-(tert-butyl)-N-(4-(6-(4-((4-((2,6-dioxopiperidin-3-yl)amino)phenethyl)carbamoyl)phenyl)pyrrolo[2,1-f] [1,2,4]triazin-4-yl)-2-methylbenzyl)-1,2,4-oxadiazole-3-carboxamide]",< 100
3,"Cc1cc(-c2ncnn3cc(-c4ccc(C(=O)N[C@H](C)c5cccc(NC6CCC(=O)NC6=O)c5)cc4)cc23)ccc1CNC(=O)c1noc(C(C)(C)C)n1 (stereo partly drawn) [Example 199, 5-(tert-butyl)-N-(4-(6-(4-(((1R)-1-(3-((2,6-dioxopiperidin-3-yl)amino)phenyl)ethyl)carbamoyl)phenyl)pyrrolo[2,1-f] [1,2,4]triazin-4-yl)-2-methylbenzyl)-1,2,4-oxadiazole-3-carboxamide]",< 100
4,"Cc1cc(-c2ncnn3cc(-c4ccc(CN5CCOC(c6ccc(NC7CCC(=O)NC7=O)cc6)C5)cc4)cc23)ccc1CNC(=O)c1noc(C(C)(C)C)n1 (centres unmarked) [Example 200, 5-(tert-butyl)-N-(4-(6-(4-((2-(4-((2,6-dioxopiperidin-3-yl)amino)phenyl)morpholino)methyl)phenyl)pyrrolo[2,1-f][1,2,4]triazin-4-yl)-2-methylbenzyl)-1,2,4-oxadiazole-3-carboxamide]",< 100
5,"Cc1cc(-c2ncnn3cc(-c4ccc(CN5CCC(Oc6ccc(NC7CCC(=O)NC7=O)cc6)CC5)cc4)cc23)ccc1CNC(=O)c1noc(C(C)(C)C)n1 (centres unmarked) [Example 201, 5-(tert-butyl)-N-(4-(6-(4-((4-(4-((2,6-dioxopiperidin-3-yl)amino)phenoxy)piperidin-1-yl)methyl)phenyl)pyrrolo[2,1-f][1,2,4]triazin-4-yl)-2-methylbenzyl)-1,2,4-oxadiazole-3-carboxamide]",< 100
6,"Cc1cc(-c2ncnn3cc(-c4ccc(CNC5CCc6cc(NC7CCC(=O)NC7=O)ccc6C5)cc4)cc23)ccc1CNC(=O)c1noc(C(C)(C)C)n1 (centres unmarked) [Example 202, 5-(tert-butyl)-N-(4-(6-(4-(((6-((2,6-dioxopiperidin-3-yl)amino)-1,2,3,4-tetrahydronaphthalen-2-yl)amino)methyl)phenyl)pyrrolo[2,1-f][1,2,4]triazin-4-yl)-2-methylbenzyl)-1,2,4-oxadiazole-3-carboxamide]",< 100
7,"Cc1cc(-c2ncnn3cc(-c4ccc(CN5CCOCC(n6cc(NC7CCC(=O)NC7=O)cn6)C5)cc4)cc23)ccc1CNC(=O)c1noc(C(C)(C)C)n1 (centres unmarked) [Example 203, 5-(tert-butyl)-N-(4-(6-(4-((6-(4-((2,6-dioxopiperidin-3-yl)amino)-1H-pyrazol-1-yl)-1,4-oxazepan-4-yl)methyl)phenyl)pyrrolo[2,1-f][1,2,4]triazin-4-yl)-2-methylbenzyl)-1,2,4-oxadiazole-3-carboxamide]",< 100
8,COc1cc(CN2CCC(c3ccc(C4CCC(=O)NC4=O)cc3)CC2)ccc1OCCOc1cccc(-c2cc3c(-c4ccc(CNC(=O)c5noc(C(C)(C)C)n5)c(C)c4)ncnn3c2)c1 (centres unmarked) [Example 204],100 to 500
9,"Cc1cc(-c2ncnn3cc(-c4cccc(-n5cc(CN6CCC(c7ccc(C8CCC(=O)NC8=O)cc7)CC6)c(C)n5)c4)cc23)ccc1CNC(=O)c1noc(C(C)(C)C)n1 (centres unmarked) [Example 205, 5-(tert-butyl)-N-(4-(6-(3-(4-((4-(4-(2,6-dioxopiperidin-3-yl)phenyl)piperidin-1-yl)methyl)-3-methyl-1H-pyrazol-1-yl)phenyl)pyrrolo[2,1-f][1,2,4]triazin-4-yl)-2-methylbenzyl)-1,2,4-oxadiazole-3-carboxamide]",< 100
10,"Cc1cc(-c2ncnn3cc(-c4cnc(Oc5ccc(CN6CCC(c7ccc(C8CCC(=O)NC8=O)cc7)CC6)cc5)nc4)cc23)ccc1CNC(=O)c1noc(C(C)(C)C)n1 (centres unmarked) [Example 206, 5-(tert-butyl)-N-(4-(6-(2-(4-((4-(4-(2,6-dioxopiperidin-3-yl)phenyl)piperidin-1-yl)methyl)phenoxy)pyrimidin-5-yl)pyrrolo[2,1-f][1,2,4]triazin-4-yl)-2-methylbenzyl)-1,2,4-oxadiazole-3-carboxamide]",< 100
11,"Cc1cc(-c2ncnn3cc(-c4cccc(C(C)CN5CCC(c6ccc(C7CCC(=O)NC7=O)cc6)CC5)c4)cc23)ccc1CNC(=O)c1noc(C(C)(C)C)n1 (centres unmarked) [Example 207, 5-(tert-butyl)-N-(4-(6-(3-(1-(4-(4-(2,6-dioxopiperidin-3-yl)phenyl)piperidin-1-yl)propan-2-yl)phenyl)pyrrolo[2,1-f][1,2,4]triazin-4-yl)-2-methylbenzyl)-1,2,4-oxadiazole-3-carboxamide]",< 100
12,"Cc1cc(-c2ncnn3cc(-c4csc(CN5CCC(c6ccc(C7CCC(=O)NC7=O)cc6)CC5)n4)cc23)ccc1CNC(=O)c1noc(C(C)(C)C)n1 (centres unmarked) [Example 208, 5-(tert-butyl)-N-(4-(6-(2-((4-(4-(2,6-dioxopiperidin-3-yl)phenyl)piperidin-1-yl)methyl)thiazol-4-4-yl)pyrrolo[2,1-f][1,2,4]triazin-4-yl)-2-methylbenzyl)-1,2,4-oxadiazole-3-carboxamide]",< 100
13,"Cc1cc(-c2ncnn3cc(-c4cn(C)c(CN5CCC(c6ccc(C7CCC(=O)NC7=O)cc6)CC5)n4)cc23)ccc1CNC(=O)c1noc(C(C)(C)C)n1 (centres unmarked) [Example 209, 5-(tert-butyl)-N-(4-(6-(2-((4-(4-(2,6-dioxopiperidin-3-yl)phenyl)piperidin-1-yl)methyl)-1-methyl-1H-imidazol-4-yl)pyrrolo[2,1-f][1,2,4]triazin-4-yl)-2-methylbenzyl)-1,2,4-oxadiazole-3-carboxamide]",< 100
14,"Cc1cc(-c2ncnn3cc(-c4cn5c(CN6CCC(c7ccc(C8CCC(=O)NC8=O)cc7)CC6)cnc5s4)cc23)ccc1CNC(=O)c1noc(C(C)(C)C)n1 (centres unmarked) [Example 210, 5-(tert-butyl)-N-(4-(6-(5-((4-(4-(2,6-dioxopiperidin-3-yl)phenyl)piperidin-1-yl)methyl)imidazo[2,1-b]thiazol-2-yl)pyrrolo[2,1-f][1,2,4]triazin-4-yl)-2-methylbenzyl)-1,2,4-oxadiazole-3-carboxamide]",100 to 500
15,"Cc1cc(-c2ncnn3cc(-c4ccn5cc(CN6CCC(c7ccc(C8CCC(=O)NC8=O)cc7)CC6)nc5c4)cc23)ccc1CNC(=O)c1noc(C(C)(C)C)n1 (centres unmarked) [Example 211, 5-(tert-butyl)-N-(4-(6-(2-((4-(4-(2,6-dioxopiperidin-3-yl)phenyl)piperidin-1-yl)methyl)imidazo[1,2-a]pyridin-7-yl)pyrrolo[2,1-f][1,2,4]triazin-4-yl)-2-methylbenzyl)-1,2,4-oxadiazole-3-carboxamide]",< 100
16,"Cc1cc(-c2ncnn3cc(-c4cccc5c(CN6CCC(c7ccc(C8CCC(=O)NC8=O)cc7)CC6)n(C)nc45)cc23)ccc1CNC(=O)c1noc(C(C)(C)C)n1 (centres unmarked) [Example 212, 5-(tert-butyl)-N-(4-(6-(3-((4-(4-(2,6-dioxopiperidin-3-yl)phenyl)piperidin-1-yl)methyl)-2-methyl-2H-indazol-7-yl)pyrrolo[2,1-f][1,2,4]triazin-4-yl)-2-methylbenzyl)-1,2,4-oxadiazole-3-carboxamide]",100 to 500
17,"Cc1cc(-c2ncnn3cc(-c4ncc(CN5CCC(c6ccc(C7CCC(=O)NC7=O)cc6)CC5)cc4C)cc23)ccc1CNC(=O)c1noc(C(C)(C)C)n1 (centres unmarked) [Example 213, 5-(tert-butyl)-N-(4-(6-(5-((4-(4-(2,6-dioxopiperidin-3-yl)phenyl)piperidin-1-yl)methyl)-3-methylpyridin-2-yl)pyrrolo[2,1-f][1,2,4]triazin-4-yl)-2-methylbenzyl)-1,2,4-oxadiazole-3-carboxamide]",< 100
18,"Cc1cc(-c2ncnn3cc(-c4cccc(CN5CCC(c6ccc(C7CCC(=O)NC7=O)cc6)CC5)n4)cc23)ccc1CNC(=O)c1noc(C(C)(C)C)n1 (centres unmarked) [Example 214, 5-(tert-butyl)-N-(4-(6-(6-((4-(4-(2,6-dioxopiperidin-3-yl)phenyl)piperidin-1-yl)methyl)pyridin-2-yl)pyrrolo [2,1-f][1,2,4]triazin-4-yl)-2-methylbenzyl)-1,2,4-oxadiazole-3-carboxamide]",< 100
19,"Cc1cc(-c2ncnn3cc(-c4nccc(CN5CCC(c6ccc(C7CCC(=O)NC7=O)cc6)CC5)n4)cc23)ccc1CNC(=O)c1noc(C(C)(C)C)n1 (centres unmarked) [Example 215, 5-(tert-butyl)-N-(4-(6-(4-((4-(4-(2,6-dioxopiperidin-3-yl)phenyl)piperidin-1-yl)methyl)pyrimidin-2-yl)pyrrolo [2,1-f][1,2,4]triazin-4-yl)-2-methylbenzyl)-1,2,4-oxadiazole-3-carboxamide]",< 100
20,"Cc1cc(-c2ncnn3cc(-c4cc(CN5CCC(c6ccc(C7CCC(=O)NC7=O)cc6)CC5)ccn4)cc23)ccc1CNC(=O)c1noc(C(C)(C)C)n1 (centres unmarked) [Example 216, 5-(tert-butyl)-N-(4-(6-(4-((4-(4-(2,6-dioxopiperidin-3-yl)phenyl)piperidin-1-yl)methyl)pyridin-2-yl)pyrrolo[2,1-f][1,2,4]triazin-4-yl)-2-methylbenzyl)-1,2,4-oxadiazole-3-carboxamide]",< 100
